From article PMC7405012, “Detection of Chaetomium globosum, Ch. cochliodes and Ch. rectangulare during the Diversity Tracking of Mycotoxin-Producing Chaetomium-like Isolates Obtained in Buildings in Finland” (Toxins, 2020)
≈ marks a conversion by molar mass, not a printed value. Like-named read-outs stand apart in the source and are kept apart here.

Legend:
[1] = test system: porcine kidney cells (PK-15); assay: cells; format: cell-based
[2] = test system: murine neuroblastoma cells (MNA); assay: Inhibition of cell proliferation (ICP) assay, MNA; format: cell-based
Protocol: The plate-grown biomass of the fungal pure cultures (100–300 mg) was extracted with ethanol as described earlier. The toxicity assays, namely BSMI assay after exposure for 30 min (rapid inhibition) and for one day (slow inhibition), SMID assay and ICP assay, were all described previously. The toxicity assays involving the ethanol extracts obtained from pure fungal cultures were performed using porcine cells (sperms and somatic cell lines) as indicators according to methods described before. The calculation of EC50—the half maximal effective concentration for the ethanol-dry substances and pure mycotoxins in the BSMI, SMID and ICP assays—were described previously.
The continuous cell line PK-15 (porcine kidney cells) and a malignant cell line (MNA cell line) provided by EVIRA (Helsinki, Finland) were used in the ICP assay. 5,5′,6,6′-tetrachloro-1,1′,3,3′-tetraethyl-benzimidazolylcarbocyanine iodide (JC-1, 3520-43-2), PI (25535-16-4) and calcein-AM (148504-34-1) were obtained from Invitrogen (Carlsbad, CA, USA). Alamethicin A4665 (T. arundinaceum) (CAS 27061-78-5), a mixture of alamethicin F50 peptaibols (MW 1962, 1976, 1976 and 1990), chaetoglobosin A (CAS 50335-03-0), sterigmatocystin (CAS 10048-13-5) and ochratoxin A (CAS 303-47-9) were obtained from Sigma-Aldrich (St. Louis, MO, USA). Malt extract and tryptic soy agar were obtained from Scharlab (Barcelona, Spain). The other chemicals were of analytical grade and were purchased from local suppliers. The biocides and the wetting agent Genapol-080 were purchased from Sigma-Aldrich Finland. The fungicide Boracol 10Rh was obtained from a local supplier. The selected biocides were Borax (600 µg mL^−1; sodium tetraborate, CAS: 1330-43-4), Boracol 10Rh containing disodium octaborate tetrahydrate (CAS: 12280-03-04) and didecyldimethylammonium chloride [CAS: 7173-51-5]), PHMB (CAS: 27083-27-8), phenoxyethanol (CAS: 122-99-6), chloramine, triclosan (5-Chloro-2-(2,4-dichlorophenoxy)phenol, CAS: 3380-34-5) and the wetting agent Genapol X-080 (CAS: 9043-30-5). Genapol X-080 and the biocides were purchased from Sigma-Aldrich, except for Boracol 10Rh, which was purchased from a local supplier.

Ch. globosum 2b/26 = assay: Resistance to biocides: ascospore germination; format: cell-based, Chaetomium globosum; conditions: strain 2b/26, indoor Ch. globosum
Protocol: (§1) The toxicity of biocides and chemicals towards the indoor Chaetomium-like isolates and the reference indoor strains of the genera Aspergillus, Paecilomyces, Penicillium and Trichoderma was assessed in parallel with the six parameters presented in the Supplementary Materials: (1) germ tube assay (Figure S3); (2) estimation of turbidity (Figure S4); (3) visual emission of fluorescence (excitation at 360 nm); (4) visual resporulation of conidia; (5) inhibition of glucose consumption; and (6) resazurin reduction. All assays were performed in malt extract broth (12 g L^−1 malt extract, 7.2 µmol mL^−1 glucose, pH 5.5; Scharlab, Barcelona, Spain) in 96-well microtiter plates as described for the ICP assay.
(§2) The assays measuring inhibition of germination of conidia were done with spore suspensions of 1–2 × 10^6 fungal spores mL−^1. The tests were performed in malt extract broth (Oxoid, Hampshire United Kingdom) 12 g in 1 L, pH 5.5, glucose 7.1 mmol L^−1, and performed on microtiter plates as described by Bencsik et al. for the ICP assay. The germ tube germination is visualized in Figure S3, and the tests estimating turbidity and emission of fluorescence provoked by the germinated and metabolically active conidia and C. globosum ascospores are visualized in Figures S4 and S5. Examples of the tests estimating fluorescence emission, turbidity and re-sporulation of conidia and ascospores are compared in Figure S5. The difference of the endpoints measured with the different assays was between […]. The resazurin reduction assays (Figure S6) were performed as described for the ICP assay, except that the microtiter plates were visually inspected for the change of the blue/violet color of resazurin (indicating inhibition of germination of the exposed conidia) to the […] (indicating metabolic activity and germination of the exposed conidia).
(§3) The formation of germ tubes was inspected by a phase-contrast microscope (Olympus CKX41, Tokyo, Japan; magnification 400×) and an image recording software (Cellsense® standard version 11.0.06, Olympus Soft Imaging Solutions GmbH, Münster, Germany, 2012) after 1 and 2 days of incubation at 28 °C. The EC50 corresponded to the inhibition of 50% (estimated as the concentration between EC0 and EC100) of the conidia compared to the ethanol control (the growth medium containing 1% of ethanol). The tests were run in triplicate and calibrated with triclosan (CAS: 3380-34-5; Sigma Chemical Co., St. Louis, MO, USA) giving a mean SD of ±<20%.

Ch. globosum 2c/MT = assay: Resistance to biocides: ascospore germination; format: cell-based, Chaetomium globosum; conditions: strain 2c/MT, indoor Ch. globosum
Protocol: as §1, §2, §3

Ch. globosum 3b/AP = assay: Resistance to biocides: ascospore germination; format: cell-based, Chaetomium globosum; conditions: strain 3b/AP, indoor Ch. globosum
Protocol: as §1, §2, §3

Ch. globosum ABCD = assay: Resistance to biocides: ascospore germination; format: cell-based, Chaetomium globosum; conditions: strain ABCD, indoor Ch. globosum
Protocol: as §1, §2, §3

Ch. globosum HAS5 = assay: Resistance to biocides: ascospore germination; format: cell-based, Chaetomium globosum; conditions: strain HAS5, indoor Ch. globosum
Protocol: as §1, §2, §3

Ch. globosum MH 52 = assay: Resistance to biocides: ascospore germination; format: cell-based, Chaetomium globosum; conditions: strain MH 52, indoor Ch. globosum
Protocol: as §1, §2, §3

Ch. globosum MO9 = assay: Resistance to biocides: ascospore germination; format: cell-based, Chaetomium globosum; conditions: strain MO9, indoor Ch. globosum
Protocol: as §1, §2, §3

Ch. globosum MTAV35 = assay: Resistance to biocides: ascospore germination; format: cell-based, Chaetomium globosum; conditions: strain MTAV35, indoor Ch. globosum, median of four independent measurements with five methods
Protocol: as §1, §2, §3

Ch. globosum MTAV37 = assay: Resistance to biocides: ascospore germination; format: cell-based, Chaetomium globosum; conditions: strain MTAV37, indoor Ch. globosum
Protocol: as §1, §2, §3

Ch. globosum RUK10 = assay: Resistance to biocides: ascospore germination; format: cell-based, Chaetomium globosum; conditions: strain RUK10, indoor Ch. globosum
Protocol: as §1, §2, §3

[3] = Sus scrofa, mammalian cell line PK-15 (ICT assay), read-out: EC50
[4] = Mus musculus, Neuroblastoma cell, mammalian cell line MNA (ICT assay), read-out: EC50
[5] = Chaetomium globosum, read-out: EC50
[6] = Chaetomium globosum, MH52, read-out: EC50
[7] = mammalian cell line PK-15 (ICT assay)
[8] = mammalian cell line MNA (ICT assay)

| Compound | EC50 [1, 3] [µg/mL] | EC50 [2, 4] [µg/mL] | EC50 (Ch. globosum 2b/26; [5]) [µg/mL] | EC50 (Ch. globosum 2c/MT; [5]) [µg/mL] | EC50 (Ch. globosum 3b/AP; [5]) [µg/mL] | EC50 (Ch. globosum ABCD; [5]) [µg/mL] | EC50 (Ch. globosum HAS5; [5]) [µg/mL] | EC50 (Ch. globosum MH 52; [6]) [µg/mL] | EC50 (Ch. globosum MO9; [5]) [µg/mL] | EC50 (Ch. globosum MTAV35; [5]) [µg/mL] | EC50 (Ch. globosum MTAV37; [5]) [µg/mL] | EC50 (Ch. globosum RUK10; [5]) [µg/mL] | EC50 [1, 7] [µg/mL] | EC50 [2, 8] [µg/mL] | EC50 (Ch. globosum 2b/26) [µg/mL] | EC50 (Ch. globosum 2c/MT) [µg/mL] | EC50 (Ch. globosum 3b/AP) [µg/mL] | EC50 (Ch. globosum HAS5) [µg/mL] | EC50 (Ch. globosum MO9) [µg/mL] | EC50 (Ch. globosum RUK10) [µg/mL] | other results |
| --- | --- | --- | --- | --- | --- | --- | --- | --- | --- | --- | --- | --- | --- | --- | --- | --- | --- | --- | --- | --- | --- |
| O=BOB(O)OB(O)OB=O [Borax, sodium tetraborate] | 600 | 150 | > 5000 | > 5000 | > 5000 | 5000 | > 5000 | 5000 | > 5000 | 5000 | 5000 | 5000 |  |  |  |  |  |  |  |  |  |
| polyhexamethylene biguanide hydrochloride [PHMB] |  |  |  |  |  |  |  |  |  |  |  |  | 15 | 4 | 8 | 8 | 8 | 8 | 4 | 4 | EC50 (Ch. globosum ABCD): 4 µg/mL; EC50 (Ch. globosum MH 52): 4 µg/mL; EC50 (Ch. globosum MTAV35): 4 µg/mL; EC50 (Ch. globosum MTAV37): 4 µg/mL |
| OCCOc1ccccc1 [Phenoxy-ethanol, phenoxyethanol] | 1500 (≈ 10900 µM) | 400 (≈ 2900 µM) | 1500 (≈ 10900 µM) | 1500 (≈ 10900 µM) | 1500 (≈ 10900 µM) | 1500 (≈ 10900 µM) | 1500 (≈ 10900 µM) | 1500 (≈ 10900 µM) | 700 (≈ 5070 µM) | 700 (≈ 5070 µM) | 700 (≈ 5070 µM) | 1500 (≈ 10900 µM) |  |  |  |  |  |  |  |  |  |
| C/C1=C\[C@@H](C)C/C=C/[C@H]2[C@@H]3O[C@]3(C)[C@@H](C)[C@H]3[C@H](Cc4c[nH]c5ccccc45)NC(=O)[C@]32C(=O)/C=C/C(=O)[C@@H]1O [Chaetoglobosin A, chaetoglobosin A] |  |  |  |  |  |  |  |  |  |  |  |  |  |  |  |  |  |  |  |  | EC50 ([1]; Sus scrofa, 48 h, PK-15, 2 days, 37 °C, read-out: EC50 ICP PK-15 2 days): 3 µg/mL (≈ 5.67 µM); EC50 ([2]; Mus musculus, Neuroblastoma cell, 48 h, MNA, 2 days, 37 °C, read-out: EC50 ICP MNA 2 days): 1 µg/mL (≈ 1.89 µM) |
| NCl [Chloramine, chloramine] |  |  |  |  |  |  |  |  |  |  |  |  | 150 (≈ 2910 µM) | 80 (≈ 1550 µM) | 2500 (≈ 48600 µM) | 2500 (≈ 48600 µM) | 2500 (≈ 48600 µM) | 2500 (≈ 48600 µM) | 2500 (≈ 48600 µM) | 2500 (≈ 48600 µM) |  |
| Oc1cc(Cl)ccc1Oc1ccc(Cl)cc1Cl [Triclosan, 5-Chloro-2-(2,4-dichlorophenoxy)phenol] | 8 to 15 (≈ 27.6 to 51.8 µM) | 4 to 8 (≈ 13.8 to 27.6 µM) | 4 (≈ 13.8 µM) | 4 (≈ 13.8 µM) | 4 (≈ 13.8 µM) | 4 (≈ 13.8 µM) | 2 (≈ 6.91 µM) | 2 (≈ 6.91 µM) | 2 (≈ 6.91 µM) | 2 (≈ 6.91 µM) | 4 (≈ 13.8 µM) | 2 (≈ 6.91 µM) |  |  |  |  |  |  |  |  |  |
